According to patent US20160251332A1, “Herbicidal Compounds” (SYNGENTA PARTICIPATIONS AG, priority 2013, published 2016):

Columns and labels:
Format in all cases: in vivo
Amaranthus retroflexus [1] = experiment: Pre-emergence herbicidal activity, AMARE; settings: Application pre-emergence, 1000 g/Ha, evaluated after 13 days, scale 0-5
Method: (§1) Seeds of a variety of test species were sown in standard soil in pots. After cultivation for one day (pre-emergence) under controlled conditions in a glasshouse (at 24/16° C., day/night; 14 hours light; 65% humidity), the plants were sprayed with an aqueous spray solution derived from the formulation of the technical active ingredient in acetone/water (50:50) solution containing 0.5% Tween 20 (polyoxyethelyene sorbitan monolaurate, CAS RN 9005-64-5). The test plants were then grown in a glasshouse under controlled conditions (at 24/16° C., day/night; 14 hours light; 65% humidity) and watered twice daily. After 13 days, the test was evaluated (5=total damage to plant; 0=no damage to plant).

Setaria faberi [2] = experiment: Post-emergence herbicidal activity, SETFA; settings: Application post-emergence, 1000 g/Ha, evaluated after 13 days, scale 0-5
Method: (§2) Seeds of a variety of test species were sown in standard soil in pots. After 8 days cultivation (post-emergence) under controlled conditions in a glasshouse (at 24/16° C., day/night; 14 hours light; 65% humidity), the plants were sprayed with an aqueous spray solution derived from the formulation of the technical active ingredient in acetone/water (50:50) solution containing 0.5% Tween 20 (polyoxyethelyene sorbitan monolaurate, CAS RN 9005-64-5). The test plants were then grown in a glasshouse under controlled conditions (at 24/16° C., day/night; 14 hours light; 65% humidity) and watered twice daily. After 13 days, the test was evaluated (5=total damage to plant; 0=no damage to plant).

Amaranthus retroflexus [3] = experiment: Post-emergence herbicidal activity, AMARE; settings: Application post-emergence, 1000 g/Ha, evaluated after 13 days, scale 0-5
Method: as §2

Abutilon theophrasti [4] = experiment: Pre-emergence herbicidal activity, ABUTH; settings: Application pre-emergence, 1000 g/Ha, evaluated after 13 days, scale 0-5
Method: as §1

Zea mays [5] = experiment: Post-emergence herbicidal activity, ZEAMX; settings: Application post-emergence, 1000 g/Ha, evaluated after 13 days, scale 0-5
Method: as §2

Echinochloa crus-galli [6] = experiment: Pre-emergence herbicidal activity, ECHCG; settings: Application pre-emergence, 1000 g/Ha, evaluated after 13 days, scale 0-5
Method: as §1

Abutilon theophrasti [7] = experiment: Post-emergence herbicidal activity, ABUTH; settings: Application post-emergence, 1000 g/Ha, evaluated after 13 days, scale 0-5
Method: as §2

Alopecurus myosuroides [8] = experiment: Pre-emergence herbicidal activity, ALOMY; settings: Application pre-emergence, 1000 g/Ha, evaluated after 13 days, scale 0-5
Method: as §1

Zea mays [9] = experiment: Pre-emergence herbicidal activity, ZEAMX; settings: Application pre-emergence, 1000 g/Ha, evaluated after 13 days, scale 0-5
Method: as §1

Echinochloa crus-galli [10] = experiment: Post-emergence herbicidal activity, ECHCG; settings: Application post-emergence, 1000 g/Ha, evaluated after 13 days, scale 0-5
Method: as §2

Alopecurus myosuroides [11] = experiment: Post-emergence herbicidal activity, ALOMY; settings: Application post-emergence, 1000 g/Ha, evaluated after 13 days, scale 0-5
Method: as §2

Setaria faberi [12] = experiment: Pre-emergence herbicidal activity, SETFA; settings: Application pre-emergence, 1000 g/Ha, evaluated after 13 days, scale 0-5
Method: as §1

SMILES | AMARE damage score (Amaranthus retroflexus [1]) | SETFA damage score (Setaria faberi [2]) | AMARE damage score (Amaranthus retroflexus [3]) | ABUTH damage score (Abutilon theophrasti [4]) | ZEAMX damage score (Zea mays [5]) | ECHCG damage score (Echinochloa crus-galli [6]) | ABUTH damage score (Abutilon theophrasti [7]) | ALOMY damage score (Alopecurus myosuroides [8]) | ZEAMX damage score (Zea mays [9]) | ECHCG damage score (Echinochloa crus-galli [10]) | ALOMY damage score (Alopecurus myosuroides [11]) | SETFA damage score (Setaria faberi [12])
CN1CC(O)N(c2cc(C(F)(F)F)c(I)cn2)C1=O (stereo not drawn) [Compound A5, 4-hydroxy-3-[5-iodo-4-(trifluoromethyl)-2-pyridyl]-1-methyl-imidazolidin-2-one] | 5 | 5 | 5 | 5 | 5 | 5 | 5 | 4 | 4 | 5 | 5 | 5
Cc1ccccc1-c1cnc(N2C(=O)N(C)CC2O)cc1C(F)(F)F (stereo not drawn) [Compound A7] | 3 | 5 | 5 | 2 | 3 | 1 | 5 | 1 | 1 | 5 | 4 | 1
CN1CC(O)N(c2cc(C(F)(F)F)c(-c3cccc(NS(C)(=O)=O)c3)cn2)C1=O (stereo not drawn) [Compound A8] | 2 | 1 | 5 | 2 | 1 | 1 | 4 | 1 | 2 | 1 | 1 | 3
CN1CC(O)N(c2cc(C(F)(F)F)c(-c3cccc(S(=O)(=O)N(C)C)c3)cn2)C1=O (stereo not drawn) [Compound A10] | 5 | 5 | 5 | 5 | 4 | 5 | 5 | 4 | 3 | 5 | 5 | 4
CN1CC(O)N(c2cc(C(F)(F)F)c(-c3cccc([S+](C)[O-])c3)cn2)C1=O (stereo not drawn) [Compound A11] | 2 | 3 | 5 | 2 | 2 | 1 | 5 | 1 | 0 | 3 | 2 | 1
CN(C)C(=O)c1cccc(-c2cnc(N3C(=O)N(C)CC3O)cc2C(F)(F)F)c1 (stereo not drawn) [Compound A12] | 1 | 5 | 5 | 3 | 2 | 1 | 5 | 0 | 0 | 2 | 2 | 1
COCc1cccc(-c2cnc(N3C(=O)N(C)CC3O)cc2C(F)(F)F)c1 (stereo not drawn) [Compound A13] | 3 | 4 | 5 | 2 | 2 | 2 | 5 | 2 | 1 | 4 | 3 | 2
CN1CC(O)N(c2cc(C(F)(F)F)c(-c3ccc(C#N)s3)cn2)C1=O (stereo not drawn) [Compound A14] | 5 | 5 | 5 | 3 | 3 | 3 | 5 | 2 | 2 | 5 | 4 | 2
